Results taken from patent US9018440B2, “Fluorescent mouse model” (Stowers Institute for Medical Research, priority 2006, dated 2015).

Assays:
[1] = test system: G-protein coupled muscarinic acetylcholine receptors; test: Acetylcholine challenge of HEK 293 cells co-transfected with TetO-G-CaMP2 and CMV-VP22-tTA, G-CaMP2 fluorescence; type: cell-based, human; settings: 10 μM acetylcholine, HEK 293 TetO-G-CaMP2 + CMV-VP22-tTA, excited at 488 nm
Procedure: Cells co-transfected with the two plasmids show fluorescence, while cells with only one of the plasmids, or neither, are not fluorescent (Control, FIG. 1A). The addition of 10 μM acetylcholine (ACH) induces a subpopulation of cells to respond with increases in fluorescence (FIG. 1B). Acetylcholine activates G-protein coupled muscarinic acetylcholine receptors and mobilizes intracellular calcium. Arrows point to three of the responsive cells (a, b, and c of both FIGS. 1A and 1B).
(AFU: artificial fluorescence unit).
Human embryonic kidney cells (HEK 293) were co-transfected with TetO-G-CaMP2 and a construct containing a tetracycline transactivator protein under the control of a ubiquitous promoter (CMV-VP22-tTA). […] The change in fluorescence indicated proper function of the G-CaMP2 sensor combined with the tetracycline inducible system.

[2] = test system: glomeruli / sensory neurons of the olfactory bulb; test: Odor stimulation of OMP-tTA-G-CaMP2 compound transgenic mice, fluorescence imaging of olfactory bulb; type: in vivo, mouse; settings: for subset of sensory neurons / glomeruli activated by odor: different odors alone or combined, FIGS. 9 and 12; for activation of G-CaMP2 fluorescence in glomeruli by odor: odor delivered to the nose, thinned skull, FIG. 5; for course of G-CaMP2 intensity as the activation sequence progressed: FIGS. 10E and 11E; for sequence of glomeruli activation over length of odor exposure: FIGS. 10 and 11
Procedure: The compound transgenic mice (“transgenic mice”) containing the G-CaMP2 indicator targeted to the olfactory neurons may be used to evaluate neuron stimulation and map the signals sent in the brain. The response of sensory neurons was analyzed by stimulating transgenic mice with odor of varying concentrations. After anesthetizing mice with an injection of ketamine, the skin over the olfactory bulb was removed and the underlying skull covering the olfactory bulb was surgically thinned. The mice were then secured on an imaging plate and placed underneath a fluorescent microscope for imaging analysis. Background fluorescence was detected before odor stimulation (FIG. 5A). […] Amyl Acetate of various concentrations was also delivered to the nose of the animals using a custom made olfactometer. […] Odor delivery excited the sensory neurons, which generated action potentials that reached both olfactory bulbs.
The concentration of odor presented also activated glomeruli in a dose dependent manner (FIGS. 12C and 12D).
Animals are anesthetized with Ketamin/Xylazine cocktail and the righting reflex of the hind limbs are tested prior to surgery. Once deeply anesthetized, the hair over the head is shaved with a razor blade and a midline incision is made in the skin covering the skull to expose the olfactory bulb. For direct imaging, a head holder is glued to the bone and the animal is mounted to the microscope stage with the olfactory bulb region positioned right under the lens. (FIGS. 9 and 10). For bone thinning imaging, micro dental tools wet with saline are used to scrape the surface of the bone covering the olfactory bulb. Occasional air puffs are used to cool the thinning surface to prevent heat damage of the brain tissue. We normally stop when the bone can be indented by the gentle tough of a forceps tip, which is about 50 μm thick. The surface is then gently cleaned with saline and the head holder is attached for mounting the animal to the microscope.

SMILES	subset of sensory neurons / glomeruli activated by odor [2]	activation of G-CaMP2 fluorescence in glomeruli by odor [2]	course of G-CaMP2 intensity as the activation sequence progressed [2]	sequence of glomeruli activation over length of odor exposure [2]	other results
CC(=O)OCC[N+](C)(C)C [acetylcholine]	–	–	–	–	increase in fluorescence, cell A ([1]; FIG. 2A): approximately 90 AFU; increase in fluorescence, cell B ([1]; FIG. 2B): approximately 95 AFU; increase in fluorescence, cell C ([1]; FIG. 2C): approximately 50 AFU
CCCCCOC(C)=O [amyl acetate]	activated different neurons	several glomeruli activating G-CaMP2 fluorescence	–	–	response of right and left olfactory bulbs to various odor concentrations ([2]; various concentrations, olfactometer, FIG. 6): both the right and left olfactory bulbs were similarly stimulated
CCCC=O [butyraldehyde]	activated	–	continued to increase	sequentially activated glomeruli	–
CCCCCC(=O)O [hexanoic acid]	activated	–	–	–	–
CCCCCCCC=O [octanal]	–	response of several glomeruli to activate G-CaMP2 fluorescence	decrease in G-CaMP2 expression	activated several different glomeruli sequentially	–
